Here are results for 17 compounds from patent US20190337889A1, “COMPOSITIONS AND METHODS OF REGULATING CANCER RELATED DISORDERS AND DISEASES” (ONCO THERAPIES LLC, priority 2016, published 2019).

Assay [1] deals with HepG2 cells. Description: Caspase assay (Caspase-Glo 3/7) on HepG2 cells. Type of assay: cell-based, human. To be noted: n=4; for caspase activity (fluorescence ratio to untreated cells): 48 hours after addition, 100 uM. As for the experimental part: Caspase Assay. Caspase assay was conducted by using the Promega Caspase-Glo 3/7 kit. 100 ul of caspase-Glo 3/7 reagent was added to each well of a white walled 96-well plate containing 100 ul of blank, negative control cells or treated cells in culture medium. The contents of the wells were mixed gently and incubated at room temperature for 30 minutes to 3 hours. The luminescence of each sample was read in a luminometer.

In the next assay the test system is PC3 cells. Description: XTT cell death assay, PC3 prostate carcinoma cells. Type of assay: cell-based. To be noted: Homo sapiens, PC-3, # = 200 uM not tested, read-out: PC3: concentration with effect on cancer cells. As for the experimental part: (§1) Maintenance and Treatment of Cell Lines. Human HepG2 hepatocarcinoma cells and human U87MG glioma cells (ATCC, Manassas, Va.) were maintained in EMEM medium supplemented with 10% FBS (Hyclone, Logan, Utah). The human 1321N1 astrocytoma cells (European Collection of Cell Cultures, Sigma-Aldrich) were cultured in Dulbecco's modified Eagle's medium supplemented with 10% FBS and 2 mM L-glutamine. Human prostate carcinoma cell line PC3 was cultured in F-12K medium (Life Technologies) supplemented 10% FBS. Human lung carcinoma cell line A549 was cultured in DMEM+2 mM glutamine+10% FBS. ER positive, estrogen independent for growth MCF7/LCC9 cell line was cultured in IMEM (Biofluids) supplemented with 5% charcoal stripped calf serum. Medulloblastoma cell line DAOY was cultured in Eagle's MEM supplemented with 10% FBS. All cell lines except MDA-MB-321 were cultured at 37° C. in 5% CO2, and the medium was replaced every 2-3 days. MDA-MB-231 was grown in Leibovitz's L-15 medium with 10% FBS without CO2 supplementation.
(§2) Cell death assay. The extent of cell death and toxicity of the compounds was tested by XTT assay. The cells were plated in their respective media in 96-well plates. The compounds and were added in dilutions ranging from 0.01 nM to 200 μM and for control DMSO to 1% was used. […] For XTT assay first the medium in the wells was replaced with 200 μs of fresh phenol-red free medium. Then 50 μls of XTT solution with PMS was added to the wells. The XTT solution was made adding 0.02% phenazine methosulfate (Sigma-Aldrich #P9625) to 1 mg/ml XTT sodium salt made up in phenol-red free RPMI (Sigma-Aldrich #X4636). The plate was incubated for 4 hours at 37° C. and then the absorbance was read at a wavelength of 490 nm.

In assay [2] the test system is HepG2 cells. Description: XTT cell death assay, HepG2 hepatocarcinoma cells. Type of assay: cell-based, human. To be noted: dilutions 0.01 nM to 200 μM, usually 24 or 48 hours; for minimal effective concentration: Homo sapiens, HepG2, *Greater than 50% inhibition, read-out: HepG2* (liver cancer): concentration with greater than 50% inhibition. As for the experimental part:
as §1, with “FBS.” for “FBS. All cell lines except MDA-MB-321 were cultured at 37° C. in 5% CO2, and the medium was replaced every 2-3 days. MDA-MB-231 was grown in Leibovitz's L-15 medium with 10% FBS without CO2 supplementation.”
as §2, with “#X4636).” for “#X4636). The plate was incubated for 4 hours at 37° C. and then the absorbance was read at a wavelength of 490 nm.”
A general note: Tetrazolium dyes change colour on reduction, which living cells bring about.

The subject of another assay is A549. Description: XTT cell death assay, A549 lung carcinoma cells. To be noted: Homo sapiens, # = 200 uM not tested, read-out: A549: concentration with effect on cancer cells. Type of assay: cell-based. As for the experimental part:
as §1, §2

The next assay has as its system DAOY. Description: XTT cell death assay, DAOY medulloblastoma cells. Type of assay: cell-based. To be noted: Homo sapiens, # = 200 uM not tested, read-out: DAOY: concentration with effect on cancer cells. As for the experimental part:
as §1, §2

For a further assay, the system named is 1321N1 cells. Description: XTT cell death assay, 1321N1 astrocytoma cells. Type of assay: cell-based. To be noted: Homo sapiens, *Greater than 50% inhibition, dilutions 0.01 nM to 200 μM, usually 24 or 48 hours, read-out: 1321N* (brain cancer): concentration with greater than 50% inhibition. As for the experimental part:
as §1, with “FBS.” for “FBS. All cell lines except MDA-MB-321 were cultured at 37° C. in 5% CO2, and the medium was replaced every 2-3 days. MDA-MB-231 was grown in Leibovitz's L-15 medium with 10% FBS without CO2 supplementation.”
as §2, with “#X4636).” for “#X4636). The plate was incubated for 4 hours at 37° C. and then the absorbance was read at a wavelength of 490 nm.”

The test system of another assay is MCF7/LCC9 cell line. Description: XTT cell death assay, MCF7/LCC9 cells. Type of assay: cell-based. To be noted: Homo sapiens, # = 200 uM not tested, read-out: LCC-9: concentration with effect on cancer cells. As for the experimental part: as §1, §2
Another assay relates to MDA-MB-231. Description: XTT cell death assay, MDA-MB-231 cells. Type of assay: cell-based. To be noted: Homo sapiens, # = 200 uM not tested, read-out: MDA-MB-231: concentration with effect on cancer cells. As for the experimental part: as §1, §2
A further assay has as its system A549 xenograft. Description: Zebrafish xenograft assay with implanted A549 cells. To be noted: zebrafish embryos, 100 uM, 4 days after implantation, n=10 to 15. Type of assay: in vivo. As for the experimental part:
Zebrafish xenograft assay. Zebrafish embryos with implanted A549 cells were imaged within 6 hours of cell injection (day 0) and treated with compounds. At 4 days post injection (day 4) the embryos were imaged again. The area of fluorescence due to the labeled cells was measured using Image J at day 0 (area 0) and day 4 (area 4). The change in area was calculated by subtracting area 0 from area 4 (=d area). D area was then normalized for the size of the initial tumor by dividing d area by area 0 (=d area/area 0).

SMILES strings stand for the structures.

`C[C@H](CCC(=O)O)C[C@H](C)C[C@H](C)C(=O)/C=C(\O)[C@H](C)C[C@H](C)C/C=C/[C@@H](C)[C@@H](O)[C@@H](C)[C@@H](O)C[C@@H]1CC[C@@](C)([C@H]2CC[C@@](C)([C@@H](C)O)O2)O1` [ionomycin, reference compound]: the “caspase activation (fluorescence ratio to untreated cells)” value in the assay with HepG2 cells [1] (48 hours, control compound at 10 uM) is recorded as “did not show an increase in caspase activation”.

As for `CC(Cc1cccc2ccccc12)Nc1ccc(O)cc1` (stereo not shown) [NT017, 4-((1-(naphthalen-1-yl)propan-2-yl)amino)phenol], the minimal effective concentration in the assay with PC3 cells, in the assay with A549, in the assay with DAOY and in the assay with 1321N1 cells was 100 µM each time. Further, the “HepG2* (liver cancer): concentration with greater than 50% inhibition” value in the assay on HepG2 cells [2] is given as “No effect”.

As to `Cc1ccc(CC(C)NCCc2ccc(O)cc2)c2ccccc12` (stereo not shown) [NT034], the minimal effective concentration came out at 200 µM in the assay with HepG2 cells [2], 100 µM in the assay on MCF7/LCC9 cell line and 100 µM in the assay on MDA-MB-231.

Consider `CC(N)c1cccc2ccccc12` (stereo not shown) [NT009], for which the minimal effective concentration in the assay on HepG2 cells [2] and in the assay on 1321N1 cells was 100 µM throughout.

As to `CC(Cc1cccc2ccccc12)NCC(O)c1ccc(O)cc1` (stereo not shown) [NT019], the minimal effective concentration in the assay on PC3 cells, with HepG2 cells [2], in the assay on A549 and in the assay with DAOY was 100 µM throughout. In addition, the “caspase activity (fluorescence ratio to untreated cells)” value in the assay with HepG2 cells [1] is “increase in caspase activity”.

Regarding `COc1ccc2cc(C(C)N)ccc2c1` (stereo not shown) [NT011], the minimal effective concentration in the assay with HepG2 cells [2] and with 1321N1 cells was 200 µM each time.

With `CC(Cc1ccc2ccccc2c1)Nc1ccc(O)cc1` (stereo not shown) [NT018, 4-((1-(naphthalen-2-yl)propan-2-yl)amino)phenol], the minimal effective concentration in the assay with PC3 cells stood at 100 µM; with HepG2 cells [2], 200 µM; with A549, 100 µM; in the assay with DAOY, 100 µM; in the assay on 1321N1 cells it was 100 µM.

For `O=C(O)c1cc(O)c(O)c(O)c1` [NT003], the minimal effective concentration with HepG2 cells [2] and with 1321N1 cells was 200 µM throughout.

As to `CC(Cc1ccc2ccccc2c1)NCC(O)c1cccc(O)c1` (stereo not shown) [NT023, 3-(1-hydroxy-2-((1-(naphthalen-2-yl)propan-2-yl)amino)ethyl)phenol], the minimal effective concentration in the assay on PC3 cells, with HepG2 cells [2], in the assay on A549, in the assay with DAOY, in the assay on MCF7/LCC9 cell line and in the assay with MDA-MB-231 was 100 µM throughout.

In the case of `CC(Cc1ccc2ccccc2c1)NCC(O)c1ccccc1O` (stereo not shown) [NT030, 2-(1-hydroxy-2-((1-(naphthalen-2-yl)propan-2-yl)amino)ethyl)phenol], the minimal effective concentration in the assay with PC3 cells, in the assay with HepG2 cells [2], with A549, with DAOY, in the assay on MCF7/LCC9 cell line and with MDA-MB-231 was 100 µM throughout.

`CC(Cc1ccc2ccccc2c1)NCC(O)c1ccccc1` (stereo not shown) [NT020, 2-((1-(naphthalen-2-yl)propan-2-yl)amino)-1-phenylethan-1-ol]: the minimal effective concentration with PC3 cells, in the assay on HepG2 cells [2], with A549, in the assay on DAOY, in the assay on MCF7/LCC9 cell line and in the assay with MDA-MB-231 was 100 µM throughout.

On to `Cc1ccc(CC(C)NCC(O)c2cccc(O)c2)c2ccccc12` (stereo not shown) [NT037, 3-(1-hydroxy-2-((1-(4-methylnaphthalen-1-yl)propan-2-yl)amino)ethyl)phenol], for which the minimal effective concentration in the assay on A549, in the assay on DAOY, with MCF7/LCC9 cell line and with MDA-MB-231 was 100 µM each time.

For the compound `Cc1ccc(CC(C)NCC(O)c2ccc(O)cc2)c2ccccc12` (stereo not shown) [NT039, 4-(1-hydroxy-2-((1-(4-methylnaphthalen-1-yl)propan-2-yl)amino)ethyl)phenol], the “area of A549 xenograft implant” value in the assay with A549 xenograft is “efficacy of reducing the area of xenograft significantly”. Also, the minimal effective concentration with A549, with DAOY and in the assay with MCF7/LCC9 cell line was 100 µM each time.

In the case of `CC(Cc1cccc2ccccc12)NCC(O)c1cccc(O)c1` (stereo not shown) [NT022, 3-(1-hydroxy-2-((1-(naphthalen-1-yl)propan-2-yl)amino)ethyl)phenol], the minimal effective concentration with PC3 cells, with HepG2 cells [2], with A549, in the assay on DAOY, with MCF7/LCC9 cell line and with MDA-MB-231 was 100 µM throughout. The “caspase activity (fluorescence ratio to untreated cells)” value in the assay with HepG2 cells [1] is given as “increase in caspase activity”.

`CC(Cc1ccc2ccccc2c1)NCCc1ccc(O)cc1` (stereo not shown) [NT021, 4-(2-((1-(naphthalen-2-yl)propan-2-yl)amino)ethyl)phenol]: the minimal effective concentration in the assay with PC3 cells was found to be 200 µM; with HepG2 cells [2], 200 µM; in the assay on A549 it was 100 µM; in the assay on DAOY it was 100 µM; in the assay on MCF7/LCC9 cell line it was 100 µM; with MDA-MB-231 it was 100 µM.

Turning to `Cc1ccc(CC(C)NCC(O)c2ccccc2)c2ccccc12` (stereo not shown) [NT038, 2-((1-(4-methylnaphthalen-1-yl)propan-2-yl)amino)-1-phenylethan-1-ol], the minimal effective concentration in the assay on A549, with DAOY, with MCF7/LCC9 cell line and with MDA-MB-231 was 100 µM each time.

As to `CC(N)c1ccc2ccccc2c1` (stereo not shown) [NT010], the minimal effective concentration with HepG2 cells [2] and in the assay on 1321N1 cells was 200 µM each time.
